Assay results as given in ChEMBL document CHEMBL1201862, “PubChem BioAssay data set” (2004).
Active and inactive are the calls of the source.

How the values were obtained:
[1] = target: T1, Microphthalmia-associated transcription factor (Homo sapiens, UniProt O75030); experiment: reducers of TRPM1 reporter luminescence, concentration series – cell-based, SK-MEL-5, cherry-picked, set 3, MITF inhibitor project, dose response (AID 493073); type: functional;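 further: SK-MEL-5 melanoma cells with luciferase driven by the MITF target TRPM1 promoter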
T1 sequence (O75030 whole entry): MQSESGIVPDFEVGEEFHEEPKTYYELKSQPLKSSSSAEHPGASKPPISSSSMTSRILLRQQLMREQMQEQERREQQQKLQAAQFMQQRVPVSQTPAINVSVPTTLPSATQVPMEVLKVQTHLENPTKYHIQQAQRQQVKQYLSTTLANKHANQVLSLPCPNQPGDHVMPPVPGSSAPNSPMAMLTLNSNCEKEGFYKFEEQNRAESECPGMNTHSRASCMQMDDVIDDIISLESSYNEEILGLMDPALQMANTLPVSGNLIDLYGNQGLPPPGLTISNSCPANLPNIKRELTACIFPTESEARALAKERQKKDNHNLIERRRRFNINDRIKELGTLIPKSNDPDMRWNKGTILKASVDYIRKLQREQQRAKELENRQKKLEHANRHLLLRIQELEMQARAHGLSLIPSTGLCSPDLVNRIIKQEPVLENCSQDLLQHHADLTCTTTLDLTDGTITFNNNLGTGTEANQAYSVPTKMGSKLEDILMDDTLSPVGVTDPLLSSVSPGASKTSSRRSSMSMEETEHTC

[2] = THP-1 cell cytotoxicity, dose response, cytotoxicity control for non-replicating M. tuberculosis project (AID 489025); type: functional
[3] = loss of viability in HepG2 cells – cell-based, CellTiter-Glo, cherry-picked, cytotoxicity control for Shn3 inhibitor project, dose response (AID 624134); type: functional
[4] = decrease of insulin promoter-GFP reporter – imaging, high-content screening, mouse beta cells (AID 1628); type: functional; settings: MIN6
[5] = Vero E6 cell cytotoxicity, dose response, cytotoxicity control for non-replicating M. tuberculosis project, secondary assay (AID 492998); type: functional, VeroE6; settings: Vero C1008
[6] = system: Saccharomyces cerevisiae; experiment: S. cerevisiae Caspase-1/ASC signal blockers IC50, NALP1 inhibitor project selectivity test (AID 488863); type: functional, organism-based
[7] = target: NACHT, LRR and PYD domains-containing protein 1 (Homo sapiens, UniProt Q9C000); experiment: NALP1 inhibitors in yeast, dose response, luminescent (AID 488860); type: functional
NACHT, LRR and PYD domains-containing protein 1, sequence (Q9C000 1-1212 limits assumed): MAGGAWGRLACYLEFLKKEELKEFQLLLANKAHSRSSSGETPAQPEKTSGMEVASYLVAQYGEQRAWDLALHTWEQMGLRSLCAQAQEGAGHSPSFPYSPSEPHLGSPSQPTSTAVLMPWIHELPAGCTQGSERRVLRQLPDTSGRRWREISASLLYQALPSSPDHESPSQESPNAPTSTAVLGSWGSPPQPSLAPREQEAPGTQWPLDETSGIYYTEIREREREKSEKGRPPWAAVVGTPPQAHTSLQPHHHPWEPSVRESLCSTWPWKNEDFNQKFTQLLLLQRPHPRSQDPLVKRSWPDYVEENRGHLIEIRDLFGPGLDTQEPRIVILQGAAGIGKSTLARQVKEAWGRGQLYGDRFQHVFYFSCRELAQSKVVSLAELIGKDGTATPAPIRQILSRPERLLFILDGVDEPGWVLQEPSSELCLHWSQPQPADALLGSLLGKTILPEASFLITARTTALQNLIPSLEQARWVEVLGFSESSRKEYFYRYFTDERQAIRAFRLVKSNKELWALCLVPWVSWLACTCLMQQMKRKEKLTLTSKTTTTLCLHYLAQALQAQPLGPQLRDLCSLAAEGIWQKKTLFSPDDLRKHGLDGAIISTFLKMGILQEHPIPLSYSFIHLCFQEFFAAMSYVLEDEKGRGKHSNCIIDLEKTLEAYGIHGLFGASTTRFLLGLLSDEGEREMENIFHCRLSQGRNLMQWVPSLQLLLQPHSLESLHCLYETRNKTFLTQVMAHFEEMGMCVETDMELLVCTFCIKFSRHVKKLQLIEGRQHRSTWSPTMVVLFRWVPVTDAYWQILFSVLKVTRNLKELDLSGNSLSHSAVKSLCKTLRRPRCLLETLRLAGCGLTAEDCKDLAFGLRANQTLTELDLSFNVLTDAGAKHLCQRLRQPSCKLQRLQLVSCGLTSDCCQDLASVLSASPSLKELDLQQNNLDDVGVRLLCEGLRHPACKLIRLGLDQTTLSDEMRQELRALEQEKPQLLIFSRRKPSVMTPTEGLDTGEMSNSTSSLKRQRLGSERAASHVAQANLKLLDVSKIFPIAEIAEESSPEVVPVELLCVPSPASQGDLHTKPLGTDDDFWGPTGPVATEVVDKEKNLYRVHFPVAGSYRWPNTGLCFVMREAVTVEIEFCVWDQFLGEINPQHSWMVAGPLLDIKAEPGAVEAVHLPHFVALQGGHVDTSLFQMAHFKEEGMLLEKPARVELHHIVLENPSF
NACHT, LRR and PYD domains-containing protein 1, sequence (Q9C000 1213-1473 limits assumed): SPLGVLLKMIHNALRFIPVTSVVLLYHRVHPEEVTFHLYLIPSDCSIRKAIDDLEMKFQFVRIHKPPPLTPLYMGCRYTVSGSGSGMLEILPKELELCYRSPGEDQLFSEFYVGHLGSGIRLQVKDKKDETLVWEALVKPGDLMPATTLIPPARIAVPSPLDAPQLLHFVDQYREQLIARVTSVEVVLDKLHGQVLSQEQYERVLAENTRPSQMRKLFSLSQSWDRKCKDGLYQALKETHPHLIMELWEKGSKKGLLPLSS

[8] = reduction of Shn3 3'UTR-driven luciferase in osteoblasts – cell-based, Clone20 osteoblasts, firefly luciferase, cherry-picked, dose response (AID 624132); type: functional;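 further: firefly luciferase luminescence from reporter carrying the Shn3 3'UTR in osteoblasts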
[9] = Luminescence Cell-Based Dose Retest to Confirm Inhibitors of Cancer Stem Cells. [Related pubchem assays (depositor defined):AID2717, AID2721]; type: functional, Homo sapiens; settings: Homo sapiens
[10] = MIN6 cell viability loss – mouse insulinoma, cytotoxicity control, dose response (AID 2122); type: functional;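 further: confirmatory high-throughput counterscreen run to flag cytotoxic compounds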
[11] = system: A-375; experiment: MITF: Counter assay: A375 proliferation Measured in Cell-Based System Using Plate Reader - 2084-03_Inhibitor_Dose_DryPowder_Activity. [Related pubchem assays (depositor defined):AID488944]; type: functional; settings: Homo sapiens
[12] = non-specific 3'UTR reporter inhibition in Clone20-Shn3RL – cell-based, Renilla luciferase, cherry-picked, counter-screen for Shn3 inhibitor project, dose response (AID 624133); type: functional
[13] = HepG2 cell cytotoxicity, dose response, cytotoxicity control for non-replicating M. tuberculosis project (AID 489018); type: functional; settings: Mycobacterium tuberculosis
[14] = viability of PTEN-deleted HCT116 cells – cell-based, HCT116 PTEN knockout, dose response (AID 1047); type: functional;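 further: HCT116 colon tumor cells with PTEN knocked out; cells exposed to compound for 60 hours before readout; potency for loss of cell viability measured by luminescence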
[15] = viability of HCT116 lacking mutant beta-catenin – cell-based, human colon tumor, dose response (AID 1045); type: functional;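 further: HCT116 colon tumor cells with beta catenin knocked out; cells exposed to compound for 60 hours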
[16] = system: A-375; experiment: proliferation inhibition in MITF-low A375 cells – cell-based, cherry-pick samples, set 2, counter-screen for MITF modulator project, dose response (AID 540335); type: functional; settings: Homo sapiens
[17] = cells; type: functional
[18] = target: Type-1 angiotensin II receptor (Homo sapiens, UniProt P30556); experiment: antagonism of angiotensin II type 1 receptor – cell-based, uHTS hits, selectivity assay for APJ receptor antagonist project, dose response (AID 463214); type: functional;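 further: antagonist potency against angiotensin II stimulated AT1 response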
Type-1 angiotensin II receptor, sequence (P30556 whole entry): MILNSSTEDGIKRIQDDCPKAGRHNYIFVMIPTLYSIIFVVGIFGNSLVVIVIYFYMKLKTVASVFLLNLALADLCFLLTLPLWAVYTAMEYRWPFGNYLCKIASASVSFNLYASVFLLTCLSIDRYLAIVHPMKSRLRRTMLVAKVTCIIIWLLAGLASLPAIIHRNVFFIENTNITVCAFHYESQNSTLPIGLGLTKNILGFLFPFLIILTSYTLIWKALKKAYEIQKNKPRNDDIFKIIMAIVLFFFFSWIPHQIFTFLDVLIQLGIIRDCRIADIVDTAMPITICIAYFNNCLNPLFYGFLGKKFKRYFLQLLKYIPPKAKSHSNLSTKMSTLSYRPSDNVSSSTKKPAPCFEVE

[19] = target: Beta-galactosidase (Escherichia coli, UniProt Q8VNN2); experiment: PubChem AID 485352; type: functional
Beta-galactosidase, sequence (Q8VNN2 whole entry): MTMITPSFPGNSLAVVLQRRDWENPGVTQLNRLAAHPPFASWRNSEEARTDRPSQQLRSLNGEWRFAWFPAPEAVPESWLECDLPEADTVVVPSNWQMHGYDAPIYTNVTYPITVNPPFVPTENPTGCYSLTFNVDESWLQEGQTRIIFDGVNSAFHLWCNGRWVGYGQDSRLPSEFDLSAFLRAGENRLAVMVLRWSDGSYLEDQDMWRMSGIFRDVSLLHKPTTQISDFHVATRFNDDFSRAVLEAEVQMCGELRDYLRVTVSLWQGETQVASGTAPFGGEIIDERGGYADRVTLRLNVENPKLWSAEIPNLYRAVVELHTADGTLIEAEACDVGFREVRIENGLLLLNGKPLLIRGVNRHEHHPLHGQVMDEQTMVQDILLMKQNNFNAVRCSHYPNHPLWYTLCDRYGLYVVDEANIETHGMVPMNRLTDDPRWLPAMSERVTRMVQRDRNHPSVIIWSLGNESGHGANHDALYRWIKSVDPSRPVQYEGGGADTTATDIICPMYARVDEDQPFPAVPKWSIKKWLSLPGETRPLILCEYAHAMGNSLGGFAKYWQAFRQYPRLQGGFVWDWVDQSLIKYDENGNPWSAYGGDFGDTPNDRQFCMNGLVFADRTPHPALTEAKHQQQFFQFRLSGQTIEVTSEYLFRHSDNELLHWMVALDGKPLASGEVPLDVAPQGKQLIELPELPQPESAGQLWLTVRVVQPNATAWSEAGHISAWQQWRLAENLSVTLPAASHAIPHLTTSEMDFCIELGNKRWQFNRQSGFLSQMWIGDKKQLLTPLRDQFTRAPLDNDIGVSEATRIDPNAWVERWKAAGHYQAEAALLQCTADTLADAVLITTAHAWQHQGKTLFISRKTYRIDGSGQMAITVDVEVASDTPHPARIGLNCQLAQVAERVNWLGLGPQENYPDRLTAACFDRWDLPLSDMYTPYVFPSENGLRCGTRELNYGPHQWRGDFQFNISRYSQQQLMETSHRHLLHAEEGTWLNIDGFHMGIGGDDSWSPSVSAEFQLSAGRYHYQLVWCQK

[20] = system: Candida albicans; experiment: fluconazole-resistant Candida strain growth inhibitors – CaCi-8 strain, dry powder, set 4, dose response (AID 488950); type: functional, organism-based
[21] = system: Candida albicans; experiment: resistant Candida growth with fluconazole co-treatment – CaCi-8 strain, Alamar Blue, dry powder, set 2, dose response (AID 488909); type: functional, organism-based
[22] = system: Candida albicans; experiment: C. albicans growth inhibition with fluconazole – CaCi-2 strain, Alamar Blue, dry powder, set 4, dose response (AID 488943); type: functional, organism-based
[23] = target: Phospholipase D1 (Homo sapiens, UniProt Q13393); experiment: cellular phospholipase D1 inhibition IC50 – cell-based, dose response (AID 602151); type: functional;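 further: cellular PLD1 assay in Calu-1 cells stimulated with PMA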
Phospholipase D1, sequence (Q13393 whole entry): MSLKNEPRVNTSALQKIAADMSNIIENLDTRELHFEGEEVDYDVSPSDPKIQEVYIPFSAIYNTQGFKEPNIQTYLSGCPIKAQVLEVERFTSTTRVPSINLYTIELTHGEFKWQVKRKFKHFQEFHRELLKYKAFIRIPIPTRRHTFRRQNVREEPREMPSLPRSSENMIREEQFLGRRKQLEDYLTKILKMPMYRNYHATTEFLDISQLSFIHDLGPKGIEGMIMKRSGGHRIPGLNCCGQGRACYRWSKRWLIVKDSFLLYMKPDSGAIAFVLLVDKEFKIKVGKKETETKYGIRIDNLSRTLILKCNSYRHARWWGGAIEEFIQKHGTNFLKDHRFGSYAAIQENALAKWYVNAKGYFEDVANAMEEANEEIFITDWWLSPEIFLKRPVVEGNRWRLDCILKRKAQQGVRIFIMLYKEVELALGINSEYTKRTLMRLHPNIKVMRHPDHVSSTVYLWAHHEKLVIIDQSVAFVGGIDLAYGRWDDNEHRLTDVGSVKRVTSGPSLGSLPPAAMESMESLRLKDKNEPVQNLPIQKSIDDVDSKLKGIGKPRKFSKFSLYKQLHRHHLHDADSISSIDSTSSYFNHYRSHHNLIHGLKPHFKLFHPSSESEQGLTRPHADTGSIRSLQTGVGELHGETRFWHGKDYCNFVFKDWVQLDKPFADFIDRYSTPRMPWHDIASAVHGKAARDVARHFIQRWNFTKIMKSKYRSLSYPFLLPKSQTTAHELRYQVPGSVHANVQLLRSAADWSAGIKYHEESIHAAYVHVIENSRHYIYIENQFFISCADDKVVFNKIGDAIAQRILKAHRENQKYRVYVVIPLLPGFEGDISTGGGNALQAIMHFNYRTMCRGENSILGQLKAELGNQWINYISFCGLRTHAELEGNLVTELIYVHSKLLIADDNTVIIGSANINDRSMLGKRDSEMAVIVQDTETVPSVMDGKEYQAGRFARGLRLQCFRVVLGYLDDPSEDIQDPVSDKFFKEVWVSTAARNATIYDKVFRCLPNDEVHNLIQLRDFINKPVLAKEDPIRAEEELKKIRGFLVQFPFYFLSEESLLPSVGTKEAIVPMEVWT

[24] = target: Phospholipase D2 (Homo sapiens, UniProt O14939); experiment: cellular phospholipase D2 inhibition IC50 – cell-based, dose response (AID 602147); type: functional;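 further: cellular assay in HEK293 cells overexpressing GFP-tagged PLD2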
Phospholipase D2, sequence (O14939 whole entry): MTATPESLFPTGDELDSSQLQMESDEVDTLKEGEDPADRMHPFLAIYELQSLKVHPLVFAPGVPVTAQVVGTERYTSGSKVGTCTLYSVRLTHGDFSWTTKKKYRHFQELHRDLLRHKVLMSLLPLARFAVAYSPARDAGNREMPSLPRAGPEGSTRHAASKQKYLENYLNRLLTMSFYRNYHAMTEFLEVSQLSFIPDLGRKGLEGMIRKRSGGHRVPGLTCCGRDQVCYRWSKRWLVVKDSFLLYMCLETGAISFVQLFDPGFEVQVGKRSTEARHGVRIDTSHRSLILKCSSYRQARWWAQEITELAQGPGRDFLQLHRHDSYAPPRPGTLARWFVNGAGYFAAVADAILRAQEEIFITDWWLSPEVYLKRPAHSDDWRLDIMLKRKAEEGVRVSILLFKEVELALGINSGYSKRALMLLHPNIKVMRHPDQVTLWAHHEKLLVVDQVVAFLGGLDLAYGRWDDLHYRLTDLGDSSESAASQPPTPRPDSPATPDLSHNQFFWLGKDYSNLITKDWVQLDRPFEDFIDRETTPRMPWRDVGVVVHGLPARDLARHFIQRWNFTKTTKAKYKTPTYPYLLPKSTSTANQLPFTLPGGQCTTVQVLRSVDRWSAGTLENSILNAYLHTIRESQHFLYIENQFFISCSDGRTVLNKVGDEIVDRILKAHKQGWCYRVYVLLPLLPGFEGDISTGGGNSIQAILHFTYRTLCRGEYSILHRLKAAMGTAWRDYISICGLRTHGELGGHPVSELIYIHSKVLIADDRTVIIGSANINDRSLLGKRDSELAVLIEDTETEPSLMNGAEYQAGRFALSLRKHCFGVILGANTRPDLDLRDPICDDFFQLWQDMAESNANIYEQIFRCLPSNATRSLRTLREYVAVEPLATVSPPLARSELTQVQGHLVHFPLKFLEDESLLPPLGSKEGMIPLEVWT

Structure (SMILES): CCCOc1ccc(C(=O)C(CN2CCCC2)c2ccccc2)cc1 (centres undefined)
- AC50 [1]: 8.62 µM (active)
- CC50 [2]: 6.32 µM (active)
- AC50 [3]: 22.6 µM (active)
- IC50 [4]: 3.73 µM (active)
- CC50 [5]: 9.02 µM (active)
- IC50 [6]: 5.8 µM (active)
- IC50 [7]: 10.2 µM (active)
- AC50 [8]: 4.84 µM (active)
- AC50 [9]: 1.76 µM (active)
- IC50 [10]: 3.13 µM (active)
- AC50 [11]: > 35 µM (active)
- AC50 [12]: 13.2 µM (active)
- CC50 [13]: 13.3 µM (active)
- EC50 [14]: 2.19 µM (active)
- EC50 [15]: 1.96 µM (active)
- AC50 [16]: > 35 µM (active)
- IC50 [17]: 12.7 µM (active)

Structure (SMILES): Cc1ccc(C)c(NCC(=O)c2ccc(Cl)cc2)c1
- IC50 [18]: 14.4 µM (active)
- EC50 [19]: > 40 µM (inactive)

Structure (SMILES): O=C(c1ccc(Cl)cc1)N1CCN(c2ncnc3ccccc23)CC1
- AC50 [20]: 2.27 µM (active)
- AC50 [21]: 4.12 µM (active)
- AC50 [22]: 1.07 µM (active)

Structure (SMILES): O=C(NCCN1CCC(n2c(=O)[nH]c3ccccc32)CC1)c1cscn1
- IC50 [23]: 0.033 µM (active)
- IC50 [24]: 0.25 µM (active)
